Test results published in PubChem BioAssay (NCI).
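The compound was tested at five concentrations on cells cultured in 96-well plates, with a 48-hour exposure period. GI50: concentration for 50% inhibition of growth. At the TGI there is no net growth.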

What was measured:
Test in all cases: DTP human tumour cell line panel, 48 h
PC-3 prostate = test system: PC-3 prostate
A498 renal = test system: A498 renal
SNB-19 CNS = test system: SNB-19 CNS
SK-MEL-2 melanoma = test system: SK-MEL-2 melanoma
SF-539 CNS = test system: SF-539 CNS
DU-145 prostate = test system: DU-145 prostate
RXF 393 renal = test system: RXF 393 renal
SK-OV-3 ovarian = test system: SK-OV-3 ovarian
OVCAR-4 ovarian = test system: OVCAR-4 ovarian
HOP-92 NSCLC = test system: HOP-92 NSCLC
MALME-3M melanoma = test system: MALME-3M melanoma
MDA-MB-231 breast = test system: MDA-MB-231 breast
BT-549 breast = test system: BT-549 breast
T-47D breast = test system: T-47D breast
KM12 colon = test system: KM12 colon
NCI-H522 lung = test system: NCI-H522 lung
M14 melanoma = test system: M14 melanoma
SK-MEL-28 melanoma = test system: SK-MEL-28 melanoma
HCC-2998 colon = test system: HCC-2998 colon
SK-MEL-5 melanoma = test system: SK-MEL-5 melanoma
CAKI-1 renal = test system: CAKI-1 renal
EKVX NSCLC = test system: EKVX NSCLC
K-562 leukemia = test system: K-562 leukemia
HOP-62 NSCLC = test system: HOP-62 NSCLC
MOLT-4 leukemia = test system: MOLT-4 leukemia
RPMI-8226 leukemia = test system: RPMI-8226 leukemia
LOX IMVI melanoma = test system: LOX IMVI melanoma
SN12C renal = test system: SN12C renal
OVCAR-5 ovarian = test system: OVCAR-5 ovarian
HCT-15 colon = test system: HCT-15 colon
CCRF-CEM leukemia = test system: CCRF-CEM leukemia
UACC-62 melanoma = test system: UACC-62 melanoma
SF-295 CNS = test system: SF-295 CNS
U251 CNS = test system: U251 CNS
HT29 colon = test system: HT29 colon
NCI-H226 lung = test system: NCI-H226 lung
COLO 205 colon = test system: COLO 205 colon
UO-31 renal = test system: UO-31 renal
SR leukemia = test system: SR leukemia
SW-620 colon = test system: SW-620 colon
MDA-MB-435 = test system: MDA-MB-435
A549 NSCLC = test system: A549 NSCLC
786-0 renal = test system: 786-0 renal
MCF7 breast = test system: MCF7 breast
OVCAR-8 ovarian = test system: OVCAR-8 ovarian
NCI-H23 lung = test system: NCI-H23 lung
MDA-MB-468 breast = test system: MDA-MB-468 breast
IGROV1 ovarian = test system: IGROV1 ovarian
ACHN renal = test system: ACHN renal
OVCAR-3 ovarian = test system: OVCAR-3 ovarian
HCT-116 colon = test system: HCT-116 colon
SF-268 CNS = test system: SF-268 CNS
TK-10 renal = test system: TK-10 renal
NCI-H460 lung = test system: NCI-H460 lung

## Cc1ccccc1Nc1nnc(-c2c[nH]c3ccccc23)o1
PC-3 prostate
  GI50: 3.41 µM
  TGI: > 100 µM
A498 renal
  GI50: > 100 µM
  TGI: > 100 µM
SNB-19 CNS
  GI50: 3.36 µM
  TGI: > 100 µM
SK-MEL-2 melanoma
  GI50: 1.16 µM
  TGI: 4.4 µM
SF-539 CNS
  GI50: 1.9 µM
  TGI: 5.22 µM
DU-145 prostate
  GI50: 5.47 µM
  TGI: > 100 µM
RXF 393 renal
  GI50: 2.25 µM
  TGI: 9.91 µM
SK-OV-3 ovarian
  GI50: 3.52 µM
  TGI: > 100 µM
OVCAR-4 ovarian
  GI50: 8.06 µM
  TGI: > 100 µM
HOP-92 NSCLC
  GI50: 5.66 µM
  TGI: > 100 µM
MALME-3M melanoma
  GI50: 0.869 µM
  TGI: > 100 µM
MDA-MB-231 breast
  GI50: 3.68 µM
  TGI: > 100 µM
BT-549 breast
  GI50: 3.7 µM
  TGI: > 100 µM
T-47D breast
  GI50: 12.6 µM
  TGI: > 100 µM
KM12 colon
  GI50: 4.6 µM
  TGI: > 100 µM
NCI-H522 lung
  GI50: 0.85 µM
  TGI: 6.34 µM
M14 melanoma
  GI50: 1.32 µM
  TGI: > 100 µM
SK-MEL-28 melanoma
  GI50: 3.91 µM
  TGI: > 100 µM
HCC-2998 colon
  GI50: 3.3 µM
  TGI: 15.9 µM
SK-MEL-5 melanoma
  GI50: 2.32 µM
  TGI: > 100 µM
CAKI-1 renal
  GI50: 0.897 µM
  TGI: > 100 µM
EKVX NSCLC
  GI50: 4.48 µM
  TGI: > 100 µM
K-562 leukemia
  GI50: 0.531 µM
  TGI: > 100 µM
HOP-62 NSCLC
  GI50: 3.6 µM
  TGI: > 100 µM
MOLT-4 leukemia
  GI50: 2.55 µM
  TGI: > 100 µM
RPMI-8226 leukemia
  GI50: 3.03 µM
  TGI: > 100 µM
LOX IMVI melanoma
  GI50: 2.96 µM
  TGI: > 100 µM
SN12C renal
  GI50: 3.25 µM
  TGI: > 100 µM
OVCAR-5 ovarian
  GI50: 4.13 µM
  TGI: > 100 µM
HCT-15 colon
  GI50: 1.78 µM
  TGI: > 100 µM
CCRF-CEM leukemia
  GI50: 2.09 µM
  TGI: > 100 µM
UACC-62 melanoma
  GI50: 1.13 µM
  TGI: > 100 µM
SF-295 CNS
  GI50: 0.567 µM
  TGI: 6 µM
U251 CNS
  GI50: 3.18 µM
  TGI: > 100 µM
HT29 colon
  GI50: 2.13 µM
  TGI: 11.6 µM
NCI-H226 lung
  GI50: 4.44 µM
  TGI: > 100 µM
COLO 205 colon
  GI50: 2.22 µM
  TGI: 16.7 µM
UO-31 renal
  GI50: 1.88 µM
  TGI: > 100 µM
SR leukemia
  GI50: 0.527 µM
  TGI: > 100 µM
SW-620 colon
  GI50: 0.882 µM
  TGI: > 100 µM
MDA-MB-435
  GI50: 0.298 µM
  TGI: 1.13 µM
A549 NSCLC
  GI50: 6.09 µM
  TGI: > 100 µM
786-0 renal
  GI50: 5.58 µM
  TGI: > 100 µM
MCF7 breast
  GI50: 3.02 µM
  TGI: > 100 µM
OVCAR-8 ovarian
  GI50: 3.44 µM
  TGI: > 100 µM
NCI-H23 lung
  GI50: 3.38 µM
  TGI: > 100 µM
MDA-MB-468 breast
  GI50: 2.21 µM
  TGI: 7.14 µM
IGROV1 ovarian
  GI50: 2.32 µM
  TGI: > 100 µM
ACHN renal
  GI50: 4.32 µM
  TGI: > 100 µM
OVCAR-3 ovarian
  GI50: 0.889 µM
  TGI: > 100 µM
HCT-116 colon
  GI50: 5.96 µM
  TGI: > 100 µM
SF-268 CNS
  GI50: 5.15 µM
  TGI: > 100 µM
TK-10 renal
  GI50: 7.65 µM
  TGI: > 100 µM
NCI-H460 lung
  GI50: 2.88 µM
  TGI: > 100 µM
